# According to US8901317B2, “Tryptamine derivatives, their preparation and their use in gastropathy” (Council of Scientific & Industrial Research, priority 2010, dated 2014):
# What was measured:
# [1] = test system: diclofenac induced gastric mucosal injury; experiment: Diclofenac-induced gastric mucosal injury (ulcer index); format: in vivo, Sprague-Dwaley rats; settings: diclofenac 75 mg kg^−1 oral
# Protocol: Sprague-Dwaley rats (180-220 gm) were used for this study. Each group (control or experimental) of animals was maintained at 24±2° C. with 12 hrs lights and dark cycle. The animals were fasted for 24 hrs before the start of experiments. They were provided with water ad libitum to avoid food-induced increased acid secretion and its effect on gastric lesions. Gastric mucosal ulcer was developed by indomethacin as described (Pal, C; et al. Free Radic Biol Med, 49(2), 258-267; 2010, Biswas, K.; et al. J. Biol. Chem. 278:10993-11001; 2003, Bandyopadhyay, U.; et al. Life Sci. 71:2845-2865; 2002). Briefly, all the animals were divided into control, indomethacin and test compound group. Oral administration of indomethacin at a dose of 48 mg kg^−1 b.w was given to the fasted animals to induce gastric ulcer. In the drug-pretreated groups, the animals were given drug (50, 20, 10, 5, 3, 1 mg kg^−1 b.w.) intraperitoneally 30 min prior to ulcer induction with indomethacin. Control group received vehicle only but no indomethacin. After 4 hrs of indomethacin treatment, the animals were sacrificed under proper euthanasia and stomachs were collected. The mucosal injury was scored as ulcer index as follows: 0=no pathology; 1=one pinhead ulcer. The sum of the total scores divided by the number of animals gave the ulcer index. All the in vivo studies were done in accordance with the institute animal ethical committee guidelines. To see the effect of SEGA on diclofenac induced gastric mucosal injury, gastric mucosal damage was developed by the oral administration of diclofenac (75 mg kg^−1) and the rest of the experiment was carried out in a similar way as described for indomethacin. Diclofenac produced pinhead ulcer like indomethacin and the mucosal injury was scored as ulcer index as described above. Ethanol-induced gastric mucosal injury was developed with oral administration of 1 ml of 50% ethanol (Banerjee, R. K. (2002) Life Sci 71, 2845-2865) and after 4 hrs the animals were sacrificed and cold-restrain stress induced mucosal injury was developed by immobilizing the animals at 4° C. for 3.5 hrs (Banerjee, R. K. (2002) Life Sci 71, 2845-2865, (2003) J Biol Chem 278, 10993-11001).
# [2] = test system: intra mitochondrial superoxide; experiment: Intra mitochondrial superoxide (MitoSOX); format: cell-based, rat; settings: indomethacin-treated cultured gastric mucosal cells; pretreatment
# Protocol: Isolated mucosal cells from both control and indomethacin-treated cultured gastric mucosa were used for detection of intra mitochondrial superoxide using MitoSOX, an superoxide-sensitive fluorescence probe following the protocol as described in the product catalogue (Maity, P.; et al. J. Biol. Chem. 284:3058-3068; 2009). Cells were stained with the respective fluorescent probe in HB SS (pH 7.4) and incubated for 15 min at 37° C. in the dark as described in the manufacture's protocols. After the incubation, cells were washed with HBSS three times and continued for fluorescence microscopy (Leica, DM-2500, Leica Microsystems). Staining of MitoSOX was visualized using Red filter.
# [3] = test system: cold-restrain stress induced mucosal injury; experiment: Cold-restrain stress induced mucosal injury; format: in vivo, Sprague-Dwaley rats; settings: immobilized at 4° C. for 3.5 hrs; rats
# [4] = test system: caspase-3; experiment: Caspase-3 activity in gastric mucosal tissue; format: in vivo, rats; settings: in dose dependent manner; gastric mucosa
# Protocol: From cytosolic fraction of gastric mucosal tissues, caspase-9 and caspse-3 activities were measured using commercially available kit (Biovision, Mountain View, Calif., USA and Sigma respectively). In brief, the gastric mucosa was homogenized in caspase lysis buffer (provided with the respective kit). The homogenate was centrifuged at 16,000×g for 15 min. The supernatant was collected and mixed with 50 μl of 2× reaction buffer (provided with the respective kit). This was followed by addition of the substrates: […] (200 μM final concentration) for caspase-3 and LEHD-pNA (200 μM final concentration) for caspase-9. The mixture was incubated at 37° C. for 1 hr and absorbance was taken at 405 nm (Maity, P.; et al. J. Biol. Chem. 284:3058-3068; 2009, Maity, P.; et al. J. Biol. Chem. 283:14391-14401; 2008, Maity, P.; et al. J. Pineal Res. 46:314-323; 2009).
smiles,measurement,setting,value
"O=C(NCCc1c[nH]c2ccc(O)cc12)c1cc(O)c(O)c(O)c1 [Compound 3a, 3,4,5-trihydroxy-N-(2-(5-hydroxy-1H-indol-3-yl)ethyl)benzamide]","protection, diclofenac induced ulcer",[1]; dose 1 mg kg^−1 i.p.,22%
same,"protection, diclofenac induced ulcer",[1]; dose 3 mg kg^−1 i.p.,25%
same,"protection, diclofenac induced ulcer",[1]; dose 5 mg kg^−1 i.p.,42%
same,"protection, diclofenac induced ulcer",[1]; dose 10 mg kg^−1 i.p.,57%
same,"protection, diclofenac induced ulcer",[1]; dose 20 mg kg^−1 i.p.,72%
same,"protection, diclofenac induced ulcer",[1]; dose 50 mg kg^−1 i.p.,82%
same,mitochondrial superoxides (mitoSOX),[2],restores all the NSAIDs-induced mitochondrial dysfuctions
same,gastroprotective effect in stress induced gastropathy,[3],protects the gastric mucosa
same,indomethacin-induced activation of caspase-3,[4],prevents indomethacin-induced activation of caspase-3
